Experimental data: ChEMBL document CHEMBL4619786, “Discovery of Novel Resorcinol Dibenzyl Ethers Targeting the Programmed Cell Death-1/Programmed Cell Death-Ligand 1 Interaction as Potential Anticancer Agents” (J Med Chem, 2020)

Legend:
[1] = biological target: Programmed cell death protein 1/Programmed cell death 1 ligand 1 (Homo sapiens, UniProt Q9NZQ7); assay: Inhibition of human PD1/PDL1 protein-protein interaction by HTRF assay; type: protein-complex assay
B16-F10 = assay: Cytotoxicity against mouse B16/F10 cells assessed as reduction in cell viability measured after 48 hrs by MTT assay; type: functional, cell-based; settings: B16-F10, 48 h
MCF7 = assay: Cytotoxicity against human MCF7 cells assessed as reduction in cell viability measured after 48 hrs by MTT assay; type: functional, cell-based; settings: MCF7, 48 h
A549 = assay: Cytotoxicity against human A549 cells assessed as reduction in cell viability measured after 48 hrs by MTT assay; type: functional, cell-based; settings: A549, 48 h

Programmed cell death protein 1/Programmed cell death 1 ligand 1, sequence (Q15116 whole entry): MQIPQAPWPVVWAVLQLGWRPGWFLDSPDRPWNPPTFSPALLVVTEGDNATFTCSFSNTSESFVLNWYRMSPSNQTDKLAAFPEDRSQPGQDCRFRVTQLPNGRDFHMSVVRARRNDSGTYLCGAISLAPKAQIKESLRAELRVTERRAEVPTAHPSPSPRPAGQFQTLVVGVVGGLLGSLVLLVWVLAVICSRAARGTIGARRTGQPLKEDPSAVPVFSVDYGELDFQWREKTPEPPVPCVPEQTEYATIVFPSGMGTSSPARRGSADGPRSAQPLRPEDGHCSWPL
Programmed cell death protein 1/Programmed cell death 1 ligand 1, sequence (Q9NZQ7 whole entry): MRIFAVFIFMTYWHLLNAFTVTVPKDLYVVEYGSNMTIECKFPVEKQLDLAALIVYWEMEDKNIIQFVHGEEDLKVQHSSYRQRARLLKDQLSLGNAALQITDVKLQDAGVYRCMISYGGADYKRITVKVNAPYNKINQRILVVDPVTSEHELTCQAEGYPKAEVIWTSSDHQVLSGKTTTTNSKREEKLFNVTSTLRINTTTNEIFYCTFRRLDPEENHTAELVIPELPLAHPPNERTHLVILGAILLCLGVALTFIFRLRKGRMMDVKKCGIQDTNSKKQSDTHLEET

Cc1c(COc2cc(OCc3cccc(C#N)c3)c(CNCCN(C)C)cc2Cl)cccc1-c1ccc2c(c1)OCCO2
IC50 [1]: 26.3 nM

Cc1c(COc2ccc3cc(CN4C[C@@H](O)C[C@H]4C(=O)O)ccc3c2)cccc1-c1ccccc1
IC50 [1]: > 10000 nM

CC(=O)N1CCN(Cc2cc(Cl)c(OCc3cccc(-c4ccc5c(c4)OCCO5)c3C)cc2OCc2cccc(C#N)c2)CC1
IC50 [1]: 408 nM

Cc1c(COc2cc(OCc3cccc(C#N)c3)c(CN3CCCC[C@H]3C(=O)O)cc2Cl)cccc1-c1ccncc1
IC50 [1]: > 100 nM

Cc1c(COc2cc(OCc3cccc(C#N)c3)c(CN[C@H](CO)C(=O)O)cc2Cl)cccc1-c1ccncc1
IC50 [1]: > 100 nM

Cc1c(COc2ccc3cc(CNCCN)ccc3c2)cccc1-c1ccccc1
IC50 [1]: > 10000 nM

Cc1c(COc2cc(OCc3cccc(C#N)c3)c(CN3CC(C)(O)C3)cc2Cl)cccc1-c1ccc2c(c1)OCCO2
IC50 [1]: 10 to 100 nM

Cc1c(COc2cc(OCc3cccc(C#N)c3)c(CN3CC[C@@H](O)C3)cc2Cl)cccc1-c1ccccc1
IC50 [1]: 10 to 100 nM

Cc1c(COc2cc(OCc3cccc(C#N)c3)c(CN3CC[C@H](C(=O)O)C3)cc2Cl)cccc1-c1ccccc1
IC50 [1]: 10 to 100 nM

Cc1c(COc2cc(OCc3cccc(C#N)c3)c(CN3CC[C@@H](C(=O)O)C3)cc2Cl)cccc1-c1ccccc1
IC50 [1]: 10 to 100 nM

Cc1c(COc2cc(OCc3cccc(C#N)c3)c(CN[C@H](C(=O)O)[C@@H](C)O)cc2Cl)cccc1-c1ccccc1
IC50 [1]: 9 nM

CC(=O)N1CCN(Cc2ccc3oc(-c4cccc(-c5ccc6c(c5)OCCO6)c4C)cc(=O)c3c2)CC1
IC50 [1]: > 10000 nM

Cc1c(COc2cc(OCc3cccc(C#N)c3)c(CN3CC(C(=O)O)C3)cc2Cl)cccc1-c1ccccc1
IC50 [1]: 31.2 nM

Cc1c(/C=C/C(=O)c2cc(CN3CCN(C4CC4)CC3)ccc2O)cccc1-c1ccccc1
IC50 [1]: > 20000 nM

Cc1c(COc2cc(OCc3cccc(C#N)c3)c(CNC(C)(C)C(=O)O)cc2Cl)cccc1-c1ccc2c(c1)OCCO2
IC50 [1]: 25.2 nM

Cc1c(COc2cc(OCc3cccc(C#N)c3)c(CN3CCN(C)CC3)cc2Cl)cccc1-c1ccc2c(c1)OCCO2
IC50 [1]: 225 nM

Cc1c(COc2cc(OCc3cccc(C#N)c3)c(CNCCN)cc2Cl)cccc1-c1ccc2c(c1)OCCO2
IC50 [1]: > 100 nM

CC(=O)N1CCN(Cc2ccc(O)c(C(=O)/C=C/c3cccc(-c4ccccc4)c3C)c2)CC1
IC50 [1]: 14400 nM

Cc1c(COc2cc(OCc3cccc(C#N)c3)c(CN3CCCC[C@H]3C(=O)O)cc2Cl)cccc1-c1cccnc1
IC50 [1]: > 100 nM

Cc1c(COc2cc(OCc3cccc(C#N)c3)c(CN3C[C@@H](O)C[C@H]3C(=O)O)cc2Cl)cccc1-c1cccnc1
IC50 [1]: > 100 nM

Cc1c(COc2cc(OCc3cccc(C#N)c3)c(CN3CCN(C4CC4)CC3)cc2Cl)cccc1-c1ccc2c(c1)OCCO2
IC50 [1]: 409 nM

Cc1c(COc2cc(OCc3cccc(C#N)c3)c(CNCCN(C)C)cc2Cl)cccc1-c1ccccc1
IC50 [1]: 10 to 100 nM

Cc1c(COc2cc(OCc3cccc(C#N)c3)c(CN[C@@H](CO)C(=O)O)cc2Cl)cccc1-c1ccncc1
IC50 [1]: > 100 nM

COc1cc2c(c(O)c1CC=C(C)C)C(=O)C[C@@H](c1ccc(O)cc1)O2
IC50 [1]: 96600 nM

CC(=O)NCCNCc1ccc2cc(OCc3cccc(-c4ccccc4)c3C)ccc2c1
IC50 [1]: > 10000 nM

Cc1c(COc2cc(OCc3cccc(C#N)c3)c(CN3C[C@@H](O)C[C@H]3C(=O)O)cc2Cl)cccc1-c1ccncc1
IC50 [1]: > 100 nM

Cc1c(COc2cc(OCc3cccc(C#N)c3)c(/C=N/C(CS)C(=O)O)cc2Cl)cccc1-c1ccccc1 (stereo unspecified)
IC50 [1]: > 100 nM

Cc1c(COc2cc(OCc3cccc(C#N)c3)c(CN[C@H](CO)C(=O)O)cc2Cl)cccc1-c1cccnc1
IC50 [1]: 10 to 100 nM

Cc1c(COc2cc(OCc3cccc(C#N)c3)c(CN[C@@H](C(=O)O)[C@H](C)O)cc2Cl)cccc1-c1ccncc1
IC50 [1]: > 100 nM

Cc1c(COc2cc(OCc3cccc(C#N)c3)c(CN3CC(C(=O)O)C3)cc2Cl)cccc1-c1ccc2c(c1)OCCO2
IC50 [1]: 14.5 nM

CCN1CCN(Cc2ccc(O)c(C(=O)/C=C/c3cccc(-c4ccccc4)c3C)c2)CC1
IC50 [1]: 14600 nM

CCN1CCN(Cc2ccc3oc(-c4cccc(-c5ccccc5)c4C)cc(=O)c3c2)CC1
IC50 [1]: > 10000 nM

Cc1c(COc2cc(OCc3cccc(C#N)c3)c(CN3C[C@H](O)[C@@H](F)C3)cc2Cl)cccc1-c1ccccc1
IC50 [1]: > 100 nM

Cc1c(COc2cc(OCc3cccc(C#N)c3)c(CNCCNC(=O)OC(C)(C)C)cc2Cl)cccc1-c1ccc2c(c1)OCCO2
IC50 [1]: 55.9 nM

Cc1c(COc2cc(OCc3cccc(C#N)c3)c(CN3CCCC[C@H]3C(=O)O)cc2Cl)cccc1-c1cncnc1
IC50 [1]: > 100 nM

Cc1c(COc2cc(OCc3cccc(C#N)c3)c(CN3C[C@@H](O)C[C@@H]3CO)cc2Cl)cccc1-c1ccccc1
IC50 [1]: 10 to 100 nM

Cc1c(COc2ccc3cc(CNC(C)(C)C(=O)O)ccc3c2)cccc1-c1ccc2c(c1)OCCO2
IC50 [1]: > 10000 nM

CC(=O)N1CCN(Cc2ccc(O)c(C(=O)/C=C/c3cccc(-c4ccc5c(c4)OCCO5)c3C)c2)CC1
IC50 [1]: > 20000 nM

Cc1c(COc2cc(OCc3cccc(C#N)c3)c(CNC(C)(C)C(=O)O)cc2Cl)cccc1-c1cccnc1
IC50 [1]: 10 to 100 nM

CC(=O)N1CCN(Cc2ccc(O)c(C(=O)/C=C/c3cccc(-c4ccccc4)c3F)c2)CC1
IC50 [1]: > 20000 nM

Cc1c(COc2cc(OCc3cccc(C#N)c3)c(CN3CCCC[C@@H]3C(=O)O)cc2Cl)cccc1-c1ccncc1
IC50 [1]: > 100 nM

c1cc2c(cc1[C@H]1OC[C@H]3[C@@H]1CO[C@@H]3c1ccc3c(c1)OCO3)OCO2 [SESAMIN]
IC50 [1]: > 100000 nM

Cc1c(COc2cc(OCc3cccc(C#N)c3)c(CNCCO)cc2Cl)cccc1-c1ccncc1
IC50 [1]: > 100 nM

CC(=O)N1CCN(Cc2ccc(O)c(C(=O)/C=C/c3cccc(-c4ccccc4)c3)c2)CC1
IC50 [1]: > 20000 nM

O=c1cc(-c2ccc(O)cc2)oc2cc(O[C@@H]3O[C@H](CO)[C@@H](O)[C@H](O)[C@H]3O[C@@H]3OC[C@](O)(CO)[C@H]3O)cc(O)c12 [APIIN]
IC50 [1]: > 100000 nM

CC(=O)N1CCN(Cc2ccc3oc(-c4cccc(-c5ccccc5)c4)cc(=O)c3c2)CC1
IC50 [1]: > 10000 nM

Cc1c(COc2cc(OCc3cccc(C#N)c3)c(CN3CC[C@@H](O)C3)cc2Cl)cccc1-c1ccc2c(c1)OCCO2
IC50 [1]: 14.9 nM

Cc1c(-c2ccccc2)cccc1-c1cc(=O)c2cc(CN3CCNCC3)ccc2o1
IC50 [1]: > 10000 nM

Cc1c(COc2ccc3cc(CN4C[C@@H](O)C[C@H]4C(=O)O)ccc3c2)cccc1-c1ccc2c(c1)OCCO2
IC50 [1]: > 10000 nM

Cc1c(-c2ccccc2)cccc1-c1cc(=O)c2cc(CN3CCN(CC4CC4)CC3)ccc2o1
IC50 [1]: > 10000 nM

Cc1c(COc2cc(OCc3cccc(C#N)c3)c(CN3CC(C)(O)C3)cc2Cl)cccc1-c1ccccc1
IC50 [1]: > 100 nM

CCN1CCN(Cc2cc(Cl)c(OCc3cccc(-c4ccc5c(c4)OCCO5)c3C)cc2OCc2cccc(C#N)c2)CC1
IC50 [1]: 711 nM

Cc1c(COc2cc(OCc3cccc(C#N)c3)c(CN3CCN(CC4CC4)CC3)cc2Cl)cccc1-c1ccc2c(c1)OCCO2
IC50 [1]: > 1000 nM

CC(=O)N1CCN(Cc2ccc3oc(-c4cccc(-c5ccccc5)c4F)cc(=O)c3c2)CC1
IC50 [1]: > 10000 nM

Cc1c(COc2cc(OCc3cccc(C#N)c3)c(CN3CC(O)C3)cc2Cl)cccc1-c1ccc2c(c1)OCCO2
IC50 [1]: 30.4 nM

Cc1c(COc2cc(OCc3cccc(C#N)c3)c(CN[C@@H](C(=O)O)[C@H](C)O)cc2Cl)cccc1-c1ccccc1
IC50 [1]: 8.5 nM

Cc1c(COc2cc(OCc3cccc(C#N)c3)c(CN3CCNCC3)cc2Cl)cccc1-c1ccc2c(c1)OCCO2
IC50 [1]: 233 nM

Cc1c(COc2cc(OCc3cccc(C#N)c3)c(CN[C@H](C(=O)O)[C@H](C)O)cc2Cl)cccc1-c1ccccc1
IC50 [1]: 14.1 nM

Cc1c(COc2cc(OCc3cccc(C#N)c3)c(CN3C[C@@H](O)C[C@@H]3CO)cc2Cl)cccc1-c1ccc2c(c1)OCCO2
IC50 (B16-F10): 2400 nM | IC50 (MCF7): 6600 nM | IC50 (A549): 4600 nM | IC50 [1]: 11.1 nM

CC(=O)NCCNCc1ccc(O)c(C(=O)/C=C/c2cccc(-c3ccccc3)c2C)c1
IC50 [1]: 5300 nM

Cc1c(COc2ccc3cc(CNC(C)(C)C(=O)O)ccc3c2)cccc1-c1ccccc1
IC50 [1]: > 10000 nM

Cc1c(/C=C/C(=O)c2cc(CN3CCNCC3)ccc2O)cccc1-c1ccccc1
IC50 [1]: > 20000 nM

Cc1c(COc2cc(OCc3cccc(C#N)c3)c(CN3CCC(O)C3)cc2Cl)cccc1-c1ccccc1 (stereo unspecified)
IC50 [1]: 10 to 100 nM

Cc1c(COc2cc(OCc3cccc(C#N)c3)c(CN3C[C@@H](O)C[C@H]3C(=O)O)cc2Cl)cccc1-c1cncnc1
IC50 [1]: > 100 nM

Cc1c(COc2cc(OCc3cccc(C#N)c3)c(CN3CC(O)C3)cc2Cl)cccc1-c1ccccc1
IC50 [1]: > 100 nM

Cc1c(COc2ccc3cc(CN[C@@H](CO)C(=O)O)ccc3c2)cccc1-c1ccc2c(c1)OCCO2
IC50 [1]: > 10000 nM

Cc1c(COc2cc(OCc3cccc(C#N)c3)c(CN3CC[C@H](O)C3)cc2Cl)cccc1-c1ccccc1
IC50 [1]: 10 to 100 nM

Cc1c(COc2cc(OCc3cccc(C#N)c3)c(CNCC(=O)O)cc2Cl)cccc1-c1ccccc1
IC50 [1]: 10 to 100 nM

Cc1c(COc2cc(OCc3cccc(C#N)c3)c(CN3CCCCC3C(=O)O)cc2Cl)cccc1-c1ccncc1 (stereo unspecified)
IC50 [1]: > 100 nM

Cc1c(COc2cc(OCc3cccc(C#N)c3)c(CN3CCN(C(=O)OC(C)(C)C)CC3)cc2Cl)cccc1-c1ccc2c(c1)OCCO2
IC50 [1]: > 1000 nM

Cc1c(COc2cc(OCc3cccc(C#N)c3)c(CN3CC[C@H](O)C3)cc2Cl)cccc1-c1ccc2c(c1)OCCO2
IC50 [1]: 27.5 nM

CC(=O)N1CCN(Cc2ccc3oc(-c4cccc(-c5ccccc5)c4C)cc(=O)c3c2)CC1
IC50 [1]: > 10000 nM

Cc1c(/C=C/C(=O)c2cc(CN3CCN(c4cccc([N+](=O)[O-])c4)CC3)ccc2O)cccc1-c1ccc2c(c1)OCCO2
IC50 [1]: 19300 nM

Cc1c(COc2cc(OCc3cccc(C#N)c3)c(CN3CC[C@@H](C(=O)O)C3)cc2Cl)cccc1-c1ccc2c(c1)OCCO2
IC50 [1]: 15.2 nM

Cc1c(COc2cc(OCc3cccc(C#N)c3)c(CN3C[C@H](O)[C@@H](F)C3)cc2Cl)cccc1-c1ccc2c(c1)OCCO2
IC50 [1]: > 100 nM

Cc1c(COc2cc(OCc3cccc(C#N)c3)c(CNCC(=O)O)cc2Cl)cccc1-c1ccc2c(c1)OCCO2
IC50 [1]: > 100 nM

Cc1c(COc2cc(OCc3cccc(C#N)c3)c(CN3CC(O)C(CO)C3)cc2Cl)cccc1-c1ccc2c(c1)OCCO2 (stereo unspecified)
IC50 [1]: 16.7 nM

Cc1c(COc2cc(OCc3cccc(C#N)c3)c(CN3CCN(C(C)C)CC3)cc2Cl)cccc1-c1ccc2c(c1)OCCO2
IC50 [1]: > 1000 nM
